# Reference: a melting point compilation (Tetko et al.; mined from patent text by program, amines drawn as free bases though some values may be those of a salt)
row,SMILES,melting point
1,CCc1oc2ccccc2c1C(=O)c1ccc(Br)c(S(N)(=O)=O)c1,202 to 206 °C
2,Nc1c(C(=O)c2cccc(Cl)c2)cc(Br)cc1[N+](=O)[O-],134 °C
3,CCOP(=O)(Cc1cccc(-c2nc(=O)c3ccccc3s2)n1)OCC,116 °C
4,CCOC(OCC)c1nc(N)nc(N)c1-c1cccc(Cl)c1Cl,214 to 217 °C
5,N#Cc1ccc(OCc2cccnc2)cc1F,105 to 110 °C
6,CC(=O)NCC1CC1c1cccc2nc(C(F)(F)F)cn12 (configuration not stated),135 to 137 °C
7,COc1ccc(Cl)cc1C(=O)c1cc(Cl)ccc1OC,108 °C
8,O=C(CON=C(C(=O)O)c1csc(NC(=O)C(F)(F)F)n1)OC(c1ccccc1)c1ccccc1,178 to 180 °C
9,COc1ccc(C=CC(=O)CC(=O)C=Cc2ccc(OC)c(OC)c2)cc1OC,129 to 131 °C
10,COC(C)=CC(=O)NC1CCCCCC1,120 °C
11,CS(=O)(=O)c1ccc(-c2cc(F)c(F)cc2Br)cc1,158 to 160 °C
12,CCc1nn(C2CCCC2)c2cc(C(=O)Nc3ccc(C(=O)O)cc3)ccc12,249 to 251 °C
13,Clc1ccccc1C=Nc1c2c(nc3ccccc13)CCCC2,165 to 166 °C
14,CCOc1ccccc1C1(CC(=O)N2CCN(c3ccncc3)CC2)C(=O)N(S(=O)(=O)c2ccc(OC)cc2OC)c2ccc(Cl)cc21 (configuration not stated),225 °C
15,CCOC(=O)C1CCC(=O)C(Sc2ccc(C)cc2)C1 (configuration not stated),87 to 89 °C
16,CC(C)(C)[Si](OC1CCC(O)C1COC(c1ccccc1)(c1ccccc1)c1ccccc1)(c1ccccc1)c1ccccc1 (configuration not stated),95.6 to 97 °C
17,O=c1c2c(Cc3ccccc3)n[nH]c2c2cccnc2n1-c1ccccc1,305 to 308 °C
18,"O=S1(=O)NC(c2cccc(F)c2)c2ccccc21 (single isomer, unassigned; (+))",148 °C
19,CC[C@@](O)(CC(=O)N1C(=O)O[C@@H](c2ccccc2)[C@H]1c1ccccc1)c1ccnc(OC)c1COCc1ccccc1,61 °C
20,O=C1CCC(=O)N1c1ccncc1,232 to 235 °C
21,COC(=O)C1C(=O)Nc2cccc(C(F)(F)F)c2CC1c1ccccc1OC (configuration not stated),214 to 216 °C
22,CC(=O)c1ccc2oc3ccc(C(C)=O)cc3c(=O)c2c1,226 to 228 °C
23,COc1nc(C)cnc1NS(=O)(=O)c1cccnc1-c1ccc(CC(C)C)cc1,128 to 129 °C

row,SMILES,melting point
1,C=CCOc1cc(OCc2ccc3ccccc3c2)cc(C(=O)c2nccs2)c1,65 to 67 °C
2,C#CCOc1ccc(COC(C)=O)cc1OC,69 to 71 °C
3,CCOC(=O)c1cc(O)c(C(=O)c2ccc(Cl)cc2)c([N+](=O)[O-])c1,188 to 192 °C
4,COc1cc2c(cc1O)C(C)(C)CC2=O,105 to 107 °C
5,COc1ccc(Cn2c(=O)c3cccnc3n(CCCCBr)c2=O)cc1,80 to 82 °C
6,Cc1cccc(COc2cccc3c2CN(C2CCC(=O)NC2=O)C3=O)c1 (configuration not stated),244 to 246 °C
7,NCc1ccn(C2=CC3=C(CC2)CCc2[nH]c(=O)c(=O)n(O)c23)c1,> 250 °C
8,CCCCCc1ccc(-c2c(C(C)C)ccc(CO)c2C(C)C)nc1,81 to 82 °C
9,COc1ccc2c(c1)C(O)C(Cc1ccc(OC)c(OC3CC4CCC3C4)c1)CO2 (configuration not stated),115 to 117 °C
10,O=C(O)c1ccc(NCCOc2ccccc2)cc1,172 to 175 °C
11,CC1=NN(CCCn2ccnc2)Cc2cc3ccccn3c21,162 to 163 °C
12,CNC(=S)Nc1nc(C(C)c2ccc(-c3ccccc3)c(F)c2)cs1 (configuration not stated),180 to 181 °C
13,C=C(CS(=O)(=O)Cc1ccccc1)c1ccccc1,118 °C
14,COc1cccc(NC(=O)NCc2nnc(C)n2-c2sc(C(=O)O)cc2C(=O)c2ccccc2Cl)c1,206 to 208 °C
15,COc1c(-c2ccc(C=NNS(C)(=O)=O)cc2)cc(N2CCC(=O)NC2=O)cc1C(C)(C)C,209 to 211 °C
16,O=C(N[C@@H](Cc1ccccc1)C[C@H](O)[C@H](Cc1ccccc1)NC(=O)OCc1nccs1)OCc1nccs1,66 to 69 °C
17,COC(=O)Oc1ccc(CNC=C2C(=O)NC(=O)c3ccc(Br)cc32)cc1OC(=O)OC,239 to 240 °C
18,COCCn1cnc2ccc(-c3sc(N)nc3-c3cccc(C)n3)cc21,200 to 202 °C
19,CC(OCc1cc2nc(Cl)ccc2n1S(=O)(=O)c1ccc2nc(N)sc2c1)C(=O)O (configuration not stated),218 to 220 °C
20,COCCc1nc2c(N)nc3cc(-c4cccnc4)ccc3c2n1CC(C)(C)O,158 to 160 °C
21,Oc1ccc(C2=C(c3ccc(OCCCCCI)cc3)c3ccc(O)cc3CCC2)cc1,202 to 204 °C
22,Cc1ccccc1-c1ccc(C(=O)N2Cc3ccc(C(=O)NCc4cccc(C(F)(F)F)c4)n3Cc3ccccc32)cc1C,171 to 173 °C
23,Cn1cc(C2=C(c3cn(C(=O)C(C)(C)C)c4cc([N+](=O)[O-])ccc34)C(=O)NC2=O)c2ccccc21,> 245 °C

row,SMILES,melting point
1,COc1ccc(N2CCN(NC(=S)NCC(OC)OC)CC2)cc1,157 °C
2,COc1ccc2[nH]cc(C3=CCN(C(=O)NCC4CCC(c5ccccc5)(N(C)C)CC4)CC3)c2c1 (configuration not stated),98 to 104 °C
3,CC(=O)Nc1ccc(C(=O)c2cc(-c3ccc(S(C)(=O)=O)cc3)c(N3CCOCC3)s2)cc1,129 °C
4,Cc1c(=O)n(Cc2ccccc2)c(=O)n2cc(C(=O)NCc3ccc(Cl)c(Cl)c3)sc12,180 to 182 °C
5,Cc1nc(C(F)(F)F)ccc1C(=O)C1=C(Cl)C2CCC(C2)C1=O (configuration not stated),137 to 138 °C
6,CCNC(=O)Nc1cc(-c2c(-c3ccc(F)c(C)c3)nc3c(C)ccnn23)ccn1,240 to 241 °C
7,CN1CCCC1c1ccc(Nc2cc(Br)cn(C)c2=O)nc1 (configuration not stated),143 to 145 °C
8,CN(C)CCCOc1c(Cl)cc(-c2nnc(CSCCOc3ccccc3)o2)cc1Cl,95 to 99 °C
9,CCOC(=O)N1CCN(c2ccncc2[N+](=O)[O-])CC1,101 to 103 °C
10,CCCCc1nn(-c2cc([N+](=O)[O-])ccc2Cl)c(C(=O)OCC)c1Cc1ccc(-c2ccccc2S(=O)(=O)NC(=O)c2ccccc2Cl)cc1,> 60 °C
11,COC(=O)CCCc1cc2nc(Cl)ccc2n1S(=O)(=O)c1ccc(F)c([N+](=O)[O-])c1,129 to 131 °C
12,Cc1ccc2c(c1)CC(=O)c1cc(C)ccc1O2,62 to 62.5 °C
13,CS(=O)(=O)c1cccc(NC(=O)c2cnn3c(C(F)(F)F)cc(-c4ccc(C(F)(F)F)c(Cl)c4)nc23)c1,268 °C
14,CC(C)(C)NC(=O)C(=O)c1ccccc1,76 to 77 °C
15,CCOC(=O)NC(=NCCN(Cc1ccc(Cl)cc1)c1ccccn1)NCCCc1c[nH]cn1,94 to 96 °C
16,COc1cc2c(cc1Nc1ncc(Cl)c(Nc3ccccc3S(=O)(=O)N3CCC(O)C3)n1)CCN(CC(C)O)CC2 (configuration not stated),197 to 199 °C
17,CCCC12CCC(CC(=O)O)(CC1)CC2,85 °C
18,COC(=O)c1cscc1Nc1ccc(C(F)(F)F)cc1[N+](=O)[O-],175 °C
19,CCn1c(=N)c(-c2ccsc2)cc2cnc(Nc3ccccc3)nc21,220 to 222 °C
20,COc1cc(OC)c(F)c(N2Cc3cnc(S(C)=O)nc3N(C3CC3)C2=O)c1F (configuration not stated),198 to 200 °C
21,CC(=O)Nc1ccc2c(c1)C(=O)CC1(CCN(Cc3ccc([N+](=O)[O-])cc3)CC1)O2,> 250 °C
22,COc1ccc(CC2SC(=O)NC2=O)c2ccc(=O)n(C)c12 (configuration not stated),254 to 255 °C
23,CCOP(=O)(CNC(=O)OC(C)(C)C)CNC(=O)OC(C)(C)C,118 to 120 °C

row,SMILES,melting point
1,O=c1ccc2cc([N+](=O)[O-])cc(-c3cccc4ccccc34)c2[nH]1,234 to 235 °C
2,CCOC(Nc1ccccc1)(OCC)C1(Cl)C=CN=C(C(=O)c2ccc(Cl)cc2)C1 (configuration not stated),123 to 124 °C
3,CCOC(=O)C(C#N)=Cc1c(OC)nc2c(C)cccn12,127 to 129 °C
4,O=C(c1ccc(-n2ccc(CO)n2)cc1Cl)N1Cc2cccn2Cc2ccccc21,85 °C
5,CCOC(=O)C1=C(C)NC(=S)N(C(=O)c2ccc(OC)cc2)C1c1cccc([N+](=O)[O-])c1 (configuration not stated),130 to 132 °C
6,O=c1[nH]c2ccc(C3=NOC(CN4CCC(c5ccc(F)cc5)CC4)C3)cc2o1 (configuration not stated),214 to 217 °C
7,OC(CCl)COc1ccc(-c2nc(C(F)(F)F)c[nH]2)cc1 (configuration not stated),181 to 183 °C
8,Cc1cc(-n2ccnc2)c2cccc(OCc3c(Cl)ccc(S(=O)(=O)N4CCC[C@H]4C(=O)NCCN4CCCCC4)c3Cl)c2n1,108 °C
9,Cc1c(C)c2c(c([N+](=O)[O-])c1C)OC(C)(C)C2,100 to 101 °C
10,CCCCCC/C=C/c1cccc(CCC(COC(C)=O)(COC(C)=O)NC(C)=O)c1,84 to 86 °C
11,CC(C)Oc1cc(N)ccc1-n1cccc1,55 to 57 °C
12,CCCCCNS(=O)(=O)NC(=O)CCc1ccc(OCCOC)cc1Oc1ncc(C(F)(F)F)cc1Cl,153 to 154 °C
13,C#CC(=O)Oc1ccc(OCc2ccccc2)cc1,45 to 47.5 °C
14,O=c1[nH]c2cc3cc(N4CCCC4)ccc3nc2[nH]1,> 300 °C
15,CC(=O)OC1CSC(Oc2ccc(I)nc2F)C(OC(C)=O)C1OC(C)=O (configuration not stated),234 °C
16,OCCCCCCC1CCC2C(C=CC3=CCCc4c3n2c2ccncc42)C1 (configuration not stated),101 to 102 °C
17,NS(=O)(=O)c1cccc(-c2cn(-c3nc(-c4ccc(C(F)(F)F)cc4)cc(C(F)(F)F)n3)cn2)c1,198 °C
18,COCCCn1cc(Br)c2c3c(c(-c4ccccc4Cl)cc21)C(=O)NC3=O,149 to 151 °C
19,CCc1nnc2n1-c1ccc(I)cc1C(c1ccccc1F)=NC2,209 to 211 °C
20,C#CC[C@@H](NCCCNC(=O)OCc1ccccc1)c1nc2cc(Cl)ccc2c(=O)n1Nc1ccccc1,63 to 65 °C
21,O=C(O)C(=O)c1ccc(OCCOc2ccc3ccccc3c2)c([N+](=O)[O-])c1,164 °C
22,Cc1ccc(C)n1-c1cc2c(cc1C(F)(F)F)[nH]c(=O)c(=O)n2CCC(=O)NCc1ccccc1,260 to 262 °C
23,CCOC(=O)N1CCC(NC(=O)c2ccc(Cl)c(Cl)c2)C12CCCCC2 (configuration not stated),153 to 155 °C
